Laboratory results: the NIST ThermoML archive (doi:10.1021/je034223r)
± gives the expanded uncertainty stated by the source.

Key:
[1] = excess molar enthalpy (molar enthalpy of mixing); xn = mol fraction of the nth substance listed; conditions: 298.15 K, 101.3 kPa, Liquid, Flow calorimetry
[2] = heat capacity at constant pressure per volume; xn = mol fraction of the nth substance listed; conditions: 298.15 K, 101.3 kPa, Liquid, Flow calorimetry
[3] = refractive index (Na D-line) (dimensionless); xn = mol fraction of the nth substance listed; conditions: 298.15 K, 101.3 kPa, Liquid, refractometer
[4] = xn = mol fraction of the nth substance listed; conditions: 298.15 K, 101.3 kPa, Liquid, vibrating tube
[5] = molar heat capacity at constant pressure; conditions: 298.15 K; 101.33 kPa; Liquid; Flow calorimetry
[6] = 298.15 K; 101.33 kPa; Liquid; Vibrating tube method
[7] = refractive index (Na D-line) (dimensionless); conditions: 298.15 K; 101.33 kPa; Liquid; Standard Abbe refractometry

CCCCCC(C)=O [2-heptanone] + C1COCO1
Conditions | excess molar enthalpy [kcal/mol] | heat capacity [J/K/m3] | mass density [kg/m3] | refractive index
[1], x2 = 0.1 | 0.028 ± 0.000478 | – | – | –
[1], x2 = 0.15 | 0.041 ± 0.000574 | – | – | –
[1], x2 = 0.2 | 0.0538 ± 0.000669 | – | – | –
[1], x2 = 0.25 | 0.0658 ± 0.000741 | – | – | –
[1], x2 = 0.3 | 0.0764 ± 0.000837 | – | – | –
[1], x2 = 0.35 | 0.0857 ± 0.000908 | – | – | –
[1], x2 = 0.4 | 0.0936 ± 0.000956 | – | – | –
[1], x2 = 0.45 | 0.0993 ± 0.001 | – | – | –
[1], x2 = 0.5 | 0.1031 ± 0.00103 | – | – | –
[1], x2 = 0.55 | 0.105 ± 0.00105 | – | – | –
[1], x2 = 0.6 | 0.104 ± 0.00105 | – | – | –
[1], x2 = 0.65 | 0.102 ± 0.00103 | – | – | –
[1], x2 = 0.7 | 0.0972 ± 0.001 | – | – | –
[1], x2 = 0.75 | 0.0894 ± 0.000932 | – | – | –
[1], x2 = 0.8 | 0.0793 ± 0.00086 | – | – | –
[1], x2 = 0.85 | 0.066 ± 0.000789 | – | – | –
[1], x2 = 0.9 | 0.0486 ± 0.000669 | – | – | –
[2], x2 = 0.0872 | – | 1721500 ± 2700 | – | –
[2], x2 = 0.1656 | – | 1720700 ± 2700 | – | –
[2], x2 = 0.2372 | – | 1720000 ± 2700 | – | –
[2], x2 = 0.3167 | – | 1719700 ± 2700 | – | –
[2], x2 = 0.3868 | – | 1719900 ± 2700 | – | –
[2], x2 = 0.4649 | – | 1720200 ± 2700 | – | –
[2], x2 = 0.541 | – | 1721000 ± 2700 | – | –
[2], x2 = 0.6252 | – | 1722500 ± 2700 | – | –
[2], x2 = 0.6995 | – | 1724400 ± 2700 | – | –
[2], x2 = 0.7807 | – | 1726700 ± 2700 | – | –
[2], x2 = 0.8584 | – | 1729700 ± 2700 | – | –
[3], x2 = 0.0796 | – | – | – | 1.4064 ± 0.00039
[3], x2 = 0.1592 | – | – | – | 1.40592 ± 0.00037
[3], x2 = 0.2381 | – | – | – | 1.40542 ± 0.00036
[3], x2 = 0.315 | – | – | – | 1.40489 ± 0.00034
[3], x2 = 0.3582 | – | – | – | 1.40459 ± 0.00033
[3], x2 = 0.3981 | – | – | – | 1.4043 ± 0.00033
[3], x2 = 0.437 | – | – | – | 1.404 ± 0.00032
[3], x2 = 0.4767 | – | – | – | 1.4037 ± 0.00031
[3], x2 = 0.5147 | – | – | – | 1.4034 ± 0.0003
[3], x2 = 0.5562 | – | – | – | 1.40305 ± 0.00029
[3], x2 = 0.5892 | – | – | – | 1.40276 ± 0.00029
[3], x2 = 0.6363 | – | – | – | 1.40234 ± 0.00028
[3], x2 = 0.6694 | – | – | – | 1.40202 ± 0.00027
[3], x2 = 0.7034 | – | – | – | 1.40169 ± 0.00027
[3], x2 = 0.7886 | – | – | – | 1.40078 ± 0.00025
[3], x2 = 0.8717 | – | – | – | 1.39979 ± 0.00023
[3], x2 = 0.9502 | – | – | – | 1.39873 ± 0.00022
[4], x2 = 0.1058 | – | – | 824.42 ± 0.8 | –
[4], x2 = 0.1274 | – | – | 827.37 ± 0.79 | –
[4], x2 = 0.244 | – | – | 844.52 ± 0.76 | –
[4], x2 = 0.3122 | – | – | 855.72 ± 0.74 | –
[4], x2 = 0.3693 | – | – | 865.84 ± 0.72 | –
[4], x2 = 0.3985 | – | – | 871.31 ± 0.71 | –
[4], x2 = 0.4258 | – | – | 876.6 ± 0.7 | –
[4], x2 = 0.4304 | – | – | 877.56 ± 0.7 | –
[4], x2 = 0.4313 | – | – | 877.69 ± 0.7 | –
[4], x2 = 0.4768 | – | – | 887.06 ± 0.69 | –
[4], x2 = 0.5071 | – | – | 893.63 ± 0.68 | –
[4], x2 = 0.5125 | – | – | 894.83 ± 0.68 | –
[4], x2 = 0.5141 | – | – | 895.15 ± 0.68 | –
[4], x2 = 0.536 | – | – | 900.1 ± 0.67 | –
[4], x2 = 0.5433 | – | – | 901.8 ± 0.67 | –
[4], x2 = 0.5928 | – | – | 913.69 ± 0.66 | –
[4], x2 = 0.6302 | – | – | 923.33 ± 0.65 | –
[4], x2 = 0.6308 | – | – | 923.51 ± 0.64 | –
[4], x2 = 0.667 | – | – | 933.32 ± 0.63 | –
[4], x2 = 0.7125 | – | – | 946.48 ± 0.62 | –
[4], x2 = 0.785 | – | – | 969.65 ± 0.6 | –
[4], x2 = 0.8627 | – | – | 997.8 ± 0.58 | –
[4], x2 = 0.9533 | – | – | 1036.16 ± 0.55 | –

C1COCO1 [1,3-dioxolane] + O=C1CCCCC1
[1]
Conditions | excess molar enthalpy [kcal/mol]
x1 = 0.1 | 0.0153 ± 0.000335
x1 = 0.15 | 0.0214 ± 0.000359
x1 = 0.2 | 0.0265 ± 0.000406
x1 = 0.25 | 0.0309 ± 0.00043
x1 = 0.3 | 0.0348 ± 0.000454
x1 = 0.35 | 0.0382 ± 0.000478
x1 = 0.4 | 0.0399 ± 0.000502
x1 = 0.45 | 0.0409 ± 0.000502
x1 = 0.5 | 0.041 ± 0.000502
x1 = 0.55 | 0.0404 ± 0.000502
x1 = 0.6 | 0.039 ± 0.000478
x1 = 0.65 | 0.0369 ± 0.000478
x1 = 0.7 | 0.0341 ± 0.000454
x1 = 0.75 | 0.0305 ± 0.00043
x1 = 0.8 | 0.0261 ± 0.000406
x1 = 0.85 | 0.0208 ± 0.000359
x1 = 0.9 | 0.0148 ± 0.000335

C1COCO1 [1,3-dioxolane]
Conditions | mass density [kg/m3] | molar heat capacity at constant pressure [J/K/mol] | refractive index
[5] | – | 121.66 ± 0.25 | –
[6] | 1058.67 ± 0.54 | – | –
[7] | – | – | 1.39797 ± 0.00075
